target: BRD4 protein (Homo sapiens, UniProt O60885); experiment: FRET assay, half maximal inhibitory concentration (IC50); assay type: binding; settings: BRD4 protein 50 nM, Biotin-H4KAc4 peptide 12.5 nM; A Further List of Classification
Summary of the method: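 Acetylated histone H4 peptide binding (biotin-H4KAc4, 12.5 nM final) to BRD4 (50 nM final) detected by TR-FRET between streptavidin cryptate (2.4 nM) and GST-XL665 antibody (10 nM) in KF/BSA. Buffer: HEPES pH 7.5, NaCl, CHAPS. Compound dilutions from 50 μM in 12.5% DMSO were preincubated with protein for 30 min. Variable-slope IC50.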

IC50 [nM]	SMILES
500 to 1000	Cc1cc(O)nc2ccc(NC(=O)c3cc(S(=O)(=O)N(C)C)ccc3N3CCCC3C)cc12 (stereo not shown) [S52, 5-(dimethylsulfamoyl)-N-(2-hydroxy-4-methyl-6-quinolyl)-2-(2-methylpyrrolidin-1-yl)benzamide]
< 200	Cc1cc(O)nc2ccc(NC(=O)c3cc(S(=O)(=O)N(C)C)ccc3N3CCCC3)cc12 [S27, 5-(dimethylsulfamoyl)-N-(2-hydroxy-4-methyl-6-quinolyl)-2-pyrrolidin-1-yl-benzamide]
< 200	Cc1cc(O)nc2ccc(NC(=O)c3cc(S(=O)(=O)N(C)C)ccc3N3CCCC3C(=O)N(C)C)cc12 (stereo not shown) [S62, 1-[4-(dimethylsulfamoyl)-2-[(2-hydroxy-4-methyl-6-quinolyl)carbamoyl]phenyl]-N,N-dimethyl-pyrrolidine-2-carboxamide]
200 to 500	Cc1cc(O)nc2ccc(NC(=O)c3cc(S(=O)(=O)N(C)C)ccc3N3CCCC3CC(C)C)cc12 (stereo not shown) [S55, 5-(dimethylsulfamoyl)-N-(2-hydroxy-4-methyl-6-quinolyl)-2-(2-isobutylpyrrolidin-1-yl)benzamide]
> 10000	CN1C(=O)CCc2cc(NC(=O)c3cc([N+](=O)[O-])ccc3N3CCOCC3)ccc21 [S9, N-(1-methyl-2-oxo-3,4-dihydroquinolin-6-yl)-2-morpholino-5-nitro-benzamide]
1000 to 10000	CCS(=O)(=O)Nc1ccc(N2CCN(C)CC2)c(C(=O)Nc2ccc3nc(O)cc(C)c3c2)c1 [S16, 5-(ethylsulfonylamino)-N-(2-hydroxy-4-methyl-6-quinolyl)-2-(4-methylpiperazin-1-yl)benzamide]
1000 to 10000	CN1C(=O)COc2cc(NC(=O)c3cc(S(=O)(=O)N4CCOCC4)ccc3N3CCCC3)ccc21 [S79, N-(4-methyl-3-oxo-1,4-benzoxazin-7-yl)-5-morpholinosulfonyl-2-pyrrolidin-1-yl-benzamide]
1000 to 10000	O=C1CCc2cc(NC(=O)c3cc([N+](=O)[O-])ccc3N3CCCC3)ccc2N1 [S76, 5-nitro-N-(2-oxo-3,4-dihydro-1H-quinolin-6-yl)-2-pyrrolidin-1-yl-benzamide]
> 10000	CNS(=O)(=O)c1cccc(C(=O)Nc2ccc3nc(O)cc(C)c3c2)c1 [S23, N-(2-hydroxy-4-methyl-6-quinolyl)-3-(methylsulfamoyl)benzamide]

same assay, conditions: BRD4 protein 50 nM, Biotin-H4KAc4 peptide 12.5 nM; List of Classification

IC50 [nM]	SMILES
200 to 500	Cc1cc(O)nc2ccc(NC(=O)c3cc(CO)ccc3N3CCCC3)cc12 [Compound-14, N-(2-hydroxy-4-methylquinlin-6-yl)-5-(hydroxymethyl)-2-(pyrrolidin-1-yl) benzamide]
1000 to 10000	Cc1cc(O)nc2ccc(NC(=O)c3nc(-c4nnn[nH]4)ccc3N3CCCC3)cc12 [Compound-33, N-(2-hydroxy-4-methylquinolin-6-yl)-3-(pyrrolidin-1-yl)-6-(1H-tetrazol-5-yl) picolinamide]
500 to 1000	Cc1cc(O)nc2ccc(NC(=O)c3cccnc3N3CCOC4COCC43)cc12 (stereo not shown) [Compound-143, 2-(2,3,4a,5,7,7a-hexahydrofuro[3,4-b][1,4]oxazin-4-yl)-N-(2-hydroxy-4-methyl-6-quinolyl)pyridine-3-carboxamide]
< 200	COCc1ccc(N2CCCC2)c(C(=O)Nc2ccc3nc(O)cc(C)c3c2)c1 [Compound-13, N-(2-hydroxy-4-methylquinlin-6-yl)-5-(methoxymethyl)-2-(pyrrolidin-1-yl) benzamide]
< 200	COc1cc2nc(O)cc(C)c2cc1NC(=O)c1cc(-c2c(C)noc2C)ccc1N1CCOCC1 [Compound-161, 5-(3,5-dimethylisoxazol-4-yl)-N-(2-hydroxy-7-methoxy-4-methyl-6-quinolyl)-2-morpholino-benzamide]
> 10000	Cc1cc(O)nc2ccc(N(C)C(=O)c3cc(S(=O)(=O)N(C)C)ccc3N3CCN(C)CC3)cc12 [Compound-21, 5-(N, N-dimethylsulfamoyl)-N-(2-hydroxy-4-methylquinolin-6-yl)-N-methyl-2-(4-methylpiperazin-1-yl) benzamide]
< 200	Cc1cc(O)nc2ccc(NC(=O)c3cc(C(C)O)ccc3N3CCCC3c3ccccn3)cc12 (stereo not shown) [Compound-206, N-(2-hydroxy-4-methylquinolin-6-yl)-5-(1-hydroxyethyl)-2-(2-(pyridin-2-yl)pyrrolidin-1-yl)benzamide]
< 200	CC1CC(=O)Nc2ccc(NC(=O)c3cc(CN4CCOCC4)ccc3N3CCCC3)cc21 (stereo not shown) [Compound-101, N-(4-methyl-2-oxo-3,4-dihydro-1H-quinolin-6-yl)-5-(morpholinomethyl)-2-pyrrolidin-1-yl-benzamide]
< 200	Cc1cc(O)nc2ccc(NC(=O)c3cc(-c4nnn[nH]4)ccc3N3CCOCC3)cc12 [Compound-181, N-(2-hydroxy-4-methylquinolin-6-yl)-2-morpholino-5-(1H-tetrazol-5-yl)benzamide]
> 10000	Cc1cc(=O)[nH]c2ccc(NC(=O)c3cc(S(=O)(=O)N4CCOCC4)ccc3N3CCCC3)nc12 [Compound-94, N-(8-methyl-6-oxo-5H-1,5-naphthyridin-2-yl)-5-morpholinosulfonyl-2-pyrrolidin-1-yl-benzamide]
< 200	Cc1cc(O)nc2ccc(NC(=O)c3cc(S(=O)(=O)N(C)C)ccc3N3CCOCC3)cc12 [Compound-73, 5-(dimethylsulfamoyl)-N-(2-hydroxy-4-methyl-6-quinolyl)-2-morpholino-benzamide]
< 200	Cc1cc(O)nc2ccc(NC(=O)c3cc4c(ccn4CC4NCCO4)cc3N3CCCC3)cc12 (stereo not shown) [Compound-84, N-(2-hydroxy-4-methyl-6-quinolyl)-1-(oxazolidin-2-ylmethyl)-5-pyrrolidin-1-yl-indole-6-carboxamide]
500 to 1000	Cc1cc(O)nc2ccc(NC(=O)c3cc(-c4ccoc4)cnc3N3CC4(COC4)C3)cc12 [Compound-178, 5-(furan-3-yl)-N-(2-hydroxy-4-methylquinolin-6-yl)-2-(2-oxa-6-azaspiro[3.3]heptan-6-yl)nicotinamide]
< 200	Cc1cc(O)nc2ccc(NC(=O)c3ccc(C(F)(F)F)nc3N3CCCC3)cc12 [Compound-134, N-(2-hydroxy-4-methyl-6-quinolyl)-2-pyrrolidin-1-yl-6-(trifluoromethyl)pyridine-3-carboxamide]
200 to 500	Cc1cc(O)nc2ccc(NC(=O)c3cc(C#N)ncc3N3CCCC3CN(C)C)cc12 (stereo not shown) [Compound-211]
< 200	Cc1cc(O)nc2ccc(NC(=O)c3cc(S(=O)(=O)N4CCN(C)CC4)ccc3N3CCOCC3)cc12 [Compound-5, N-(2-hydroxy-4-methylquinolin-6-yl)-5-(4-methylpiperazin-1-ylsulfonyl)-2-morpholino benzamide]
> 10000	Cc1cc(=O)nc2ccc(NC(=O)c3cc(CN4CCOCC4)cnc3N3CCCC3)cn12 [Compound-92, N-(4-methyl-2-oxo-pyrido[1,2-a]pyrimidin-7-yl)-5-(morpholinomethyl)-2-pyrrolidin-1-yl-pyridine-3-carboxamide]
1000 to 10000	CN1Cc2cc(NC(=O)c3cccnc3N3CCOCC3)ccc2NC1=O [Compound-130, N-(3-methyl-2-oxo-1,4-dihydroquinazolin-6-yl)-2-morpholino-pyridine-3-carboxamide]
< 200	Cc1cc(O)nc2ccc(NC(=O)c3cc(-c4nnn[nH]4)ncc3N3CCCC3)cc12 [Compound-203, N-(2-hydroxy-4-methylquinolin-6-yl)-5-(pyrrolidin-1-yl)-2-(1H-tetrazol-5-yl) isonicotinamide]

Source: patent publication US10752640B2, “Compounds active towards bromodomains” (NUEVOLUTION A/S, priority 2014, dated 2020)
